Experimental findings from patent US20090043129A1 (priority 2005, published 2009) are described below.

Data set [1] has as its target T1, Fatty Acid Amide Hydrolase (FAAH) (Rattus norvegicus, UniProt P97612).
T1 sequence (P97612 1-579): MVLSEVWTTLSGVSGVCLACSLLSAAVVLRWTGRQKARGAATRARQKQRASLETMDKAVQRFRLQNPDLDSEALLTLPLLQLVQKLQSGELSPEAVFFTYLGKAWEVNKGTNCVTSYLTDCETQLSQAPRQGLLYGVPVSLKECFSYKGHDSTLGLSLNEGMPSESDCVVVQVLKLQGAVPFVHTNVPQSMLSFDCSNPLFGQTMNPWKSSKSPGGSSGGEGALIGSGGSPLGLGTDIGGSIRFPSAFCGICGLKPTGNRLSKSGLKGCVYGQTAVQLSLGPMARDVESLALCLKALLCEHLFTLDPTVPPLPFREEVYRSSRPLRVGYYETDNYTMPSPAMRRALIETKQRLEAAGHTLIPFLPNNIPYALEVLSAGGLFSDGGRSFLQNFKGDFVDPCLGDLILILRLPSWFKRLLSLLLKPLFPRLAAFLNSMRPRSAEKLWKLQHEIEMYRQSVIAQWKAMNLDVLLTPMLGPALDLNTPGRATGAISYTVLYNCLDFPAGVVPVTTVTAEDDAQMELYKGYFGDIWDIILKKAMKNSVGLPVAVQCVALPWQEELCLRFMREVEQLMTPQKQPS
Nature of the data set: biochemical. Here is the method:
Assay for Fatty Acid Amide Hydrolase (FAAH)
The effect of compounds on the enzymatic hydrolysis of [^14C]anandamide (6 μM) was studied using membranes prepared from rat brain incubated with increasing concentrations of compounds in 50 mM Tris-HCl, pH 9, for 30 minutes at 37° C. (Di Marzo et al., 2002). [^14C]ethanolamine produced from [^14C]anandamide hydrolysis was measured counting the scintillation of the aqueous phase after extraction of the incubation mixture with 2 volumes of CHCl3/CH3OH (2:1 by volume). […]

Data set [2] deals with Anandamide Membrane Transporter (AMT). The experiment in a line: Anandamide uptake by RBL-2H3 cells. To be noted: anandamide uptake, read-out: AMT IC50. Type of data set: cell-based. How it is done:
Assay for the Anandamide Membrane Transporter (AMT)
The effect of the compounds on the uptake of anandamide by the RBL-2H3 cells was studied as described (Di Marzo et al., 2002). Cells were incubated with [^14C]anandamide (4 μM) for 5 minutes at 37° C., in the presence or absence of varying concentrations of the inhibitors. Residual [^14C]anandamide in the incubation media after extraction with CHCl3/CH3OH (2:1 by volume) was used as a measure of the anandamide that was taken up by cells. Data are expressed as the concentration that produces 50% of inhibition of anandamide uptake (IC50) calculated with GraphPad.

Data set [3] addresses human recombinant CB2 receptor (Homo sapiens, UniProt P34972). The experiment in a line: CB2 binding, [3H]CP55,940 displacement, membranes from transfected COS cells. Set-up: purchased Perkin-Elmer; host or cells: COS cells. The conditions noted are these: for Ki: recombinant human CB2, COS cell membranes.
For a further data set, the target named is T2, CB2 (Rattus norvegicus, UniProt Q9QZN9).
T2 construct: from tissue; host or cells: rat spleen membranes
T2 sequence (Q9QZN9 1-360): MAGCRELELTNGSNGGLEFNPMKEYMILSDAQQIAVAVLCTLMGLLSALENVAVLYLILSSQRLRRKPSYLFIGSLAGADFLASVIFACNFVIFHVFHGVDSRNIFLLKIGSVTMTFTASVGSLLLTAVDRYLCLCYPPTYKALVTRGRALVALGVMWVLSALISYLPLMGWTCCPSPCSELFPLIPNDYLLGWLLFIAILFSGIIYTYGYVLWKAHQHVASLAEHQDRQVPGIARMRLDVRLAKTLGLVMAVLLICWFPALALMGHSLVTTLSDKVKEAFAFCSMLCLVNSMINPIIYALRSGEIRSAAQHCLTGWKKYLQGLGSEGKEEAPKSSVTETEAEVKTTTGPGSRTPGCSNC
The experiment in a line: Preliminary selection with rat spleen membranes. The class given is binding. The conditions noted are these: rat brain and spleen membranes, read-out: CB2 (n.a. class, IC50 in preliminary selection).

Data set [4] has as its target human recombinant CB1 receptor (Homo sapiens, UniProt P21554). The class given is binding. More on the design: purchased Perkin-Elmer; host or cells: COS cells.
Where [5] appears, read: rat brain membranes, read-out: FAAH (n.a. class).
Where [6] appears, read: recombinant human CB1, COS cell membranes.

Molecules are shown by their SMILES. Read-outs that look alike come from different tables or passages of the source. A value given as a limit tells only on which side of the number the result lay.

Chain of human recombinant CB1 receptor (P21554 whole entry): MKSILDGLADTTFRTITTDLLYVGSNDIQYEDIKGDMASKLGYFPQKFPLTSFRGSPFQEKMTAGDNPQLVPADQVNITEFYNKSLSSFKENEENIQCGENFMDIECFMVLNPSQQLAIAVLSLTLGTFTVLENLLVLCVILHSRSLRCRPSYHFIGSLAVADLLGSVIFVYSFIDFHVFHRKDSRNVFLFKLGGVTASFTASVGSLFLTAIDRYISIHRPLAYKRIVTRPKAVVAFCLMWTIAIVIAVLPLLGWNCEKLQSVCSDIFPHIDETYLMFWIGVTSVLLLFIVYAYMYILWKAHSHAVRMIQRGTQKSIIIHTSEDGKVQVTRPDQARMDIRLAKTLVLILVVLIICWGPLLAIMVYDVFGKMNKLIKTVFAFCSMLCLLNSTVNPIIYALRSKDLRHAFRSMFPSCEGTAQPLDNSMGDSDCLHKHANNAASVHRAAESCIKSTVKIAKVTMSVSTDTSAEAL
Chain of human recombinant CB2 receptor (P34972 whole entry): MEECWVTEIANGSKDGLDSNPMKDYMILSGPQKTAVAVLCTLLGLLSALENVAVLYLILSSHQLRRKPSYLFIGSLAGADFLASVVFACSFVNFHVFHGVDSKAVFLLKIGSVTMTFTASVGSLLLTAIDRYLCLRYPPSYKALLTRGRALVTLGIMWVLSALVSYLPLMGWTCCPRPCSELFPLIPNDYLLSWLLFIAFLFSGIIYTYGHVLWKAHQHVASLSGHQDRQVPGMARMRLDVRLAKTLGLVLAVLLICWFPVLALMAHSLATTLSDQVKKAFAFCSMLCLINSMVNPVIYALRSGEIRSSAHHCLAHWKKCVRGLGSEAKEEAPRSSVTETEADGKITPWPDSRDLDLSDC

In the case of `CCCCCCc1ccc(OCCCCCCCCCCC(=O)NC2CC2)cc1O` [Compound 43, 11-(3-Hydroxy-4-hexyl-phenoxy)-undecanoic acid cyclopropylamide], the IC50 in data set [1] is more than 10 µM; in data set [2], more than 25 µM. Moreover, the “selectivity for CB2 with respect to the CB1 receptors” value in data set [3] (CB1 Ki / CB2 Ki) is given as “at least 26 times”. In data set [3], the Ki came to 0.35 µM.

The molecule `O=C(CCCCCOc1cccc(O)c1)NC1CC1` [Compound 31, 6-(3-Hydroxy-phenoxy)-hexanoic acid cyclopropylamide] registered an IC50 in data set [1] of more than 10 µM.

Regarding `CCCCCc1cc(O)cc(OCCCCCC(=O)NCCO)c1` [Compound 21, 6-(3-Hydroxy-5-pentyl-phenoxy)-hexanoic acid (2-hydroxy-ethyl)-amide], the IC50 (in data set [1]; on CB2) was more than 10 µM each time.

With `CCCCCCCCCCCCCCCc1cccc(OCCCCCCCCCCC(=O)NCCO)c1` [Compound 18, 11-(3-Pentadecyl-phenoxy)-undecanoic acid (2-hydroxy-ethyl)-amide], the melting point lay in the range of 83 to 85 °C.

Take `CCCCCCCCCCCCCCCc1cccc(OCCCCCC(=O)NCCO)c1` [Compound 15, 6-(3-Pentadecyl-phenoxy)-hexanoic acid (2-hydroxy-ethyl)-amide]: the melting point stood at 62.7 °C. Also, in data set [1] (setting [5]), the IC50 was more than 10 µM. In addition, the IC50 in data set [2] is more than 25 µM.

For the molecule `CCCCCCc1ccc(O)cc1OCCCCCC(=O)Nc1ccc(O)cc1`, the melting point amounted to 106 °C.

For `O=C(CCCCCCCCCCOc1cccc(O)c1)NC1CC1` [Compound 34, 11-(3-Hydroxy-phenoxy)-undecanoic acid cyclopropilamide], the IC50 in data set [1] is more than 10 µM. Besides, the inhibition constant (Ki) in data set [3] was 5.4 µM.

`CCCCCCCCCCCCCCCc1cccc(OCCCCCCCCCCC(=O)NC2CC2)c1` [Compound 19, 11-(3-Pentadecyl-phenoxy)-undecanoic acid cyclopropylamide] displayed a melting point of 82 °C.

`CCCCCCc1ccc(OCCCCCCCCCCCCCCCC(=O)Nc2ccc(O)cc2)cc1O` [Compound 47, 16-(3-Hydroxy-4-hexyl-phenoxy)-hexadecanoic acid (4-hydroxy-phenyl)-amide] yielded a melting point of 133.2 °C. In addition, the IC50 on CB2 is more than 10 µM.

`O=C(CCCCCCCCCCOc1cccc(O)c1)NCCO` [Compound 33, 11-(3-Hydroxy-phenoxy)-undecanoic acid (2-hydroxy-ethyl)-amide] gave a melting point of 72.1 °C. For the same molecule, in data set [1], the IC50 was more than 10 µM. In addition, on CB2, the IC50 is more than 10 µM.

Regarding `CCCCCc1cc(O)cc(OCCCCCCCCCCCCCCCC(=O)NCCO)c1` [Compound 27, 16-(3-Hydroxy-5-pentyl-phenoxy)-hexadecanoic acid (2-hydroxy-ethyl)-amide], the melting point fell in the range of 84 to 85 °C. Moreover, the IC50 at CB2 was more than 10 µM. In addition, the Ki in data set [4] (setting [6]) was 12.5 µM.

In turn, `CCCCCCc1ccc(OCCCCCC(=O)Nc2ccc(O)cc2)cc1O` returned a melting point of 128.4 °C.

`CCCCCc1cc(O)cc(OCCCCCC(=O)Nc2ccc(O)cc2)c1` [Compound 23, 6-(3-Hydroxy-5-pentyl-phenoxy)-hexanoic acid (4-hydroxy-phenyl)amide] had a melting point of 69.2 °C. The IC50 in data set [1] was more than 10 µM.

As for `CCCCCCCCCCCCCCCc1cccc(OCCCCCC(=O)Nc2ccc(O)cc2)c1` [Compound 17, 6-(3-Pentadecyl-phenoxy)-hexanoic acid (4-hydroxy-phenyl)-amide], the melting point turned out to be 103.2 °C. Besides, in data set [1] (setting [5]), the IC50 was more than 10 µM. Also, the IC50 in data set [2] is more than 25 µM.

In the case of `CCCCCc1cc(O)cc(OCCCCCCCCCCCCCCCC(=O)Nc2ccc(O)cc2)c1` [Compound 29, 16-(3-Hydroxy-5-pentyl-phenoxy)-hexadecanoic acid (4-hydroxy-phenyl)-amide], the melting point was 89.5 °C. Besides, the IC50 at CB2 is more than 10 µM.

For the molecule `O=C(CCCCCCCCCCCCCCCOc1cccc(O)c1)NCCO` [Compound 36, 16-(3-Hydroxy-phenoxy)-hexadecanoic acid (2-hydroxy-ethyl)-amide], the melting point came out at 94.5 °C. Besides, the IC50 at CB2 was more than 10 µM.

In data set [1], `O=C(CCCCCOc1cccc(O)c1)NCCO` [Compound 30, 6-(3-Hydroxy-phenoxy)-hexanoic acid (2-hydroxy-ethyl)-amide] displayed an IC50 of more than 10 µM.

In the case of `CCCCCCCCCCCCCCCc1cccc(OCCCCCCCCCCC(=O)Nc2ccc(O)cc2)c1` [Compound 20, 11-(3-Pentadecyl-phenoxy)-undecanoic acid (4-hydroxy-phenyl)-amide], the melting point was 107 °C.

Molecule `CCCCCCc1ccc(O)cc1OCCCCCCCCCCCCCCCC(=O)Nc1ccc(O)cc1` [Compound 56, 16-(2-Hexyl-5-hydroxy-phenoxy)-hexadecanoic acid (4-hydroxy-phenyl)-amide] yielded a melting point of 82.4 °C. On CB2, the IC50 was more than 10 µM. For the same molecule, in data set [4] (setting [6]), the Ki worked out at 3 µM.

`CCCCCc1cc(O)cc(OCCCCCCCCCCCCCCCC(=O)NC2CC2)c1` [Compound 28, 16-(3-Hydroxy-5-pentyl-phenoxy)-hexadecanoic acid cyclopropylamide] displayed a melting point of 91 °C. The IC50 at CB2 is more than 10 µM.

As to `O=C(CCCCCCCCCCCCCCCOc1cccc(O)c1)Nc1ccc(O)cc1` [Compound 38, 16-(3-Hydroxy-phenoxy)-hexadecanoic acid (4-hydroxy-phenyl)-amide], the inhibition constant Ki in data set [4] (setting [6]) came out at 5 µM.

The molecule `CCCCCCc1ccc(OCCCCCC(=O)NCCO)cc1O` [Compound 39, 6-(3-Hydroxy-4-hexyl-phenoxy)-hexanoic acid (2-hydroxy-ethyl)-amide] had a melting point of 71.2 °C. Also, the IC50 in data set [1] was more than 10 µM. For the same molecule, the inhibitory constant (Ki) in data set [3] came out at 6.43 µM.

Turning to `CCCCCCc1ccc(O)cc1OCCCCCC(=O)NC1CC1` [Compound 49, 6-(2-Hexyl-5-hydroxy-phenoxy)-hexanoic acid cyclopropylamide], the IC50 in data set [1] is more than 10 µM. In data set [3], the inhibition constant (Ki) stood at 3.57 µM.

Molecule `CCCCCc1cc(O)cc(OCCCCCC(=O)NC2CC2)c1` [Compound 22, 6-(3-Hydroxy-5-pentyl-phenoxy)-hexanoic acid cyclopropylamide] returned an IC50 in data set [1] of more than 10 µM. For the same molecule, the Ki in data set [3] came to 0.96 µM.

Take `CCCCCCc1ccc(O)cc1OCCCCCC(=O)NCCO` [Compound 48, 6-(2-Hexyl-5-hydroxy-phenoxy)-hexanoic acid (2-hydroxy-ethyl)-amide]: in data set [1] (setting [5]), the IC50 is more than 10 µM.

With `O=C(CCCCCCCCCCCCCCCOc1cccc(O)c1)NC1CC1` [Compound 37, 16-(3-Hydroxy-phenoxy)-hexadecanoic acid cyclopropylamide], the melting point came out at 105.6 °C. Besides, the IC50 on CB2 is more than 10 µM. Besides, in data set [4] (setting [6]), the inhibitory constant (Ki) stood at 4.25 µM.

Regarding `CCCCCCc1ccc(O)cc1OCCCCCCCCCCCCCCCC(=O)NC1CC1` [Compound 55, 16-(2-Hexyl-5-hydroxy-phenoxy)-hexadecanoic acid cyclopropylamide], the melting point came to 72.8 °C. In data set [4], the Ki came out at 5.5 µM. The inhibition constant Ki in data set [3] amounted to 2.49 µM.

Molecule `CCCCCCCCCCCCCCCc1cccc(OCCCCCC(=O)NC2CC2)c1` [Compound 16, 6-(3-Pentadecyl-phenoxy)-hexanoic acid cyclopropylamide] returned a melting point of 67.8 °C. The molecule further yielded an IC50 in data set [1] of more than 10 µM.
